In one experiment the test system is GP2D (KRAS G12D) cells. The experiment is described as follows: 2D cell viability assay (CellTiter-Glo). The class given is cell-based. The settings on record: GP2d, 96 h, 4 days. The essentials: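 GP2D (KRAS G12D) cells, 1000/well in RPMI + 10% FBS, were plated onto compound (1:3 DMSO series) and grown 4 days at 37 °C, 5% CO2 in 2D. CellTiter-Glo luminescence was read; EC50 is the concentration giving 50% signal decrease, from sigmoidal fit.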
Background: Cellular ATP, detected with luciferase, serves as a proxy for viable cell number.

The next experiment addresses GDP-loaded KRAS G12D (Homo sapiens (Human), UniProt P01116, G12D). The experiment is described as follows: KRAS G12D (GDP) biochemical assay (TR-FRET probe displacement). The class given is binding. As to conditions: 2 hours. The essentials: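 Compound pre-incubated 30 min with GDP-loaded KRAS G12D in 50 mM Hepes pH 7.4, 150 mM NaCl, 5 mM MgCl2, 0.005% Tween-20, then Eu-streptavidin and TR-FRET probe added. After 2 h at room temperature, TR-FRET ratio read; IC50 is 50% ratio decrease, sigmoidal fit.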

Usually EC50 stands for the concentration at which the effect is half-maximal. Low readings indicate higher potency in that assay, high ones lower potency in that assay. By IC50 is commonly meant the concentration that gives 50% inhibition.

GDP-loaded KRAS G12D, sequence (P01116-2 other isoform, or with tags, fused parts or gaps G12D): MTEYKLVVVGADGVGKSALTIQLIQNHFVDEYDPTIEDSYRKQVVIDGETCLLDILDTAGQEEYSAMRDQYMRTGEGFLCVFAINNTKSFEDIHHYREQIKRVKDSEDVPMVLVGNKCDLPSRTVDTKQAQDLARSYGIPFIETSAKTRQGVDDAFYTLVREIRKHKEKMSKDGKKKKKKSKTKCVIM

On to `Fc1ccc2cccc(-c3nc4c5c(nc(OCC6(CN7CCC(OC(F)(F)F)CC7)CC6)nc5c3F)N3C[C@H]5CC[C@H](N5)[C@H]3CC4)c2c1OC(F)(F)F` [Example 120, (5aR,6S,9R)-1-fluoro-2-(7-fluoro-8-(trifluoromethoxy)naphthalen-1-yl)-12-((1-((4-(trifluoromethoxy)piperidin-1-yl)methyl)cyclopropyl)methoxy)-4,5,5a,6,7,8,9,10-octahydro-3,10a,11,13,14-pentaaza-6,9-methanonaphtho[1,8-ab]heptalene], for which the response in the experiment on GP2D (KRAS G12D) cells was half-maximal at 1000 nM (EC50). The IC50 at GDP-loaded KRAS G12D came out at 337 nM.
For `C#Cc1c(F)ccc2cccc(-c3nc4c5c(nc(OC[C@@]67CCCN6C[C@@]6(CC6(F)F)C7)nc5c3F)N3C[C@H]5CC[C@H](N5)[C@H]3CC4)c12` [Example 121, (5aR,6S,9R)-12-(((1S,7a'S)-2,2-difluorodihydro-1′H,3′H-spiro[cyclopropane-1,2′-pyrrolizin]-7a′(5′H)-yl)methoxy)-2-(8-ethynyl-7-fluoronaphthalen-1-yl)-1-fluoro-4,5,5a,6,7,8,9,10-octahydro-3,10a,11,13,14-pentaaza-6,9-methanonaphtho[1,8-ab]heptalene] the same measures were 7 nM and 0.3 nM.
For `Fc1ccc2cccc(-c3nc4c5c(nc(OCC6(CN7CC[C@H](OC(F)(F)F)C7)CC6)nc5c3F)N3C[C@H]5CC[C@H](N5)[C@H]3CC4)c2c1OC(F)(F)F` [Example 125, (5aR,6S,9R)-1-fluoro-2-(7-fluoro-8-(trifluoromethoxy)naphthalen-1-yl)-12-((1-(((S)-3-(trifluoromethoxy)pyrrolidin-1-yl)methyl)cyclopropyl)methoxy)-4,5,5a,6,7,8,9,10-octahydro-3,10a,11,13,14-pentaaza-6,9-methanonaphtho[1,8-ab]heptalene] the same measures were 1000 nM and 417 nM.
Take `C#Cc1c(F)ccc2cccc(-c3nc4c5c(nc(OCC6(CN7CC[C@H](OC(F)(F)F)C7)CC6)nc5c3F)N3C[C@H]5CC[C@H](N5)[C@H]3CCC4)c12` [Example 126, (6aR,7S,10R)-2-(8-ethynyl-7-fluoronaphthalen-1-yl)-1-fluoro-13-((1-(((S)-3-(trifluoromethoxy)pyrrolidin-1-yl)methyl)cyclopropyl)methoxy)-5,6,6a,7,8,9,10,11-octahydro-4H-3,11a,12,14,15-pentaaza-7,10-methanocyclohepta[4,5]cycloocta[1,2,3-de]naphthalene]: the concentration giving a half-maximal response (EC50) in the experiment with GP2D (KRAS G12D) cells was determined as 94.4 nM. For the same compound, the IC50 at GDP-loaded KRAS G12D was determined as 2 nM.
`C#Cc1c(F)ccc2cccc(-c3nc4c5c(nc(OCC6(CN7CCC(OC(F)(F)F)CC7)CC6)nc5c3F)N3C[C@H]5CC[C@H](N5)[C@H]3CCC4)c12` [Example 127, (6aR,7S,10R)-2-(8-ethynyl-7-fluoronaphthalen-1-yl)-1-fluoro-13-((1-((4-(trifluoromethoxy)piperidin-1-yl)methyl)cyclopropyl)methoxy)-5,6,6a,7,8,9,10,11-octahydro-4H-3,11a,12,14,15-pentaaza-7,10-methanocyclohepta[4,5]cycloocta[1,2,3-de]naphthalene] registered a concentration for a half-maximal effect (EC50) with GP2D (KRAS G12D) cells of 88.9 nM. In addition, at GDP-loaded KRAS G12D, the 50% inhibitory concentration (IC50) turned out to be 1.6 nM.
The compound `C#Cc1c(F)ccc2cc(O)cc(-c3nc4c5c(nc(OC[C@@]67CCCN6C[C@H](OC(C(F)(F)F)(C(F)(F)F)C(F)(F)F)C7)nc5c3F)N3C[C@H]5CC[C@H](N5)[C@H]3CC4)c12` [Example 129, 5-ethynyl-6-fluoro-4-((5aR,6S,9R)-1-fluoro-12-((trans-2-((1,1,1,3,3,3-hexafluoro-2-(trifluoromethyl)propan-2-yl)oxy)tetrahydro-1H-pyrrolizin-7a(5H)-yl)methoxy)-4,5,5a,6,7,8,9,10-octahydro-3,10a,11,13,14-pentaaza-6,9-methanonaphtho[1,8-ab]heptalen-2-yl)naphthalen-2-ol] displayed a concentration for a half-maximal effect (EC50) with GP2D (KRAS G12D) cells of 13.3 nM. Further, the concentration for half-maximal inhibition (IC50) at GDP-loaded KRAS G12D is 2.7 nM.
For `C#Cc1c(F)ccc2cccc(-c3nc4c5c(nc(OC[C@@]67CCCN6C[C@H](OC(C(F)(F)F)(C(F)(F)F)C(F)(F)F)C7)nc5c3F)N3C[C@H]5CC[C@H](N5)[C@H]3CC4)c12` [Example 130, (5aR,6S,9R)-2-(8-ethynyl-7-fluoronaphthalen-1-yl)-1-fluoro-12-((trans-2-((1,1,1,3,3,3-hexafluoro-2-(trifluoromethyl)propan-2-yl)oxy)tetrahydro-1H-pyrrolizin-7a(5H)-yl)methoxy)-4,5,5a,6,7,8,9,10-octahydro-3,10a,11,13,14-pentaaza-6,9-methanonaphtho[1,8-ab]heptalene] the same measures were 100 nM and 100 nM.
As to `CCc1c(F)ccc2cccc(-c3nc4c5c(nc(OC[C@@]67CCCN6C[C@H](F)C7)nc5c3F)N3C[C@H]5CC[C@H](N5)[C@@H]3[C@@H](C)C4)c12` [Example 131, (5S,5aS,6S,9R)-2-(8-ethyl-7-fluoronaphthalen-1-yl)-1-fluoro-12-(((2R,7aS)-2-fluorotetrahydro-1H-pyrrolizin-7a(5H)-yl)methoxy)-5-methyl-4,5,5a,6,7,8,9,10-octahydro-3,10a,11,13,14-pentaaza-6,9-methanonaphtho[1,8-ab]heptalene], a half-maximal effect with GP2D (KRAS G12D) cells (EC50) was put at 100 nM. The same compound displayed a half-maximal inhibitory concentration (IC50) at GDP-loaded KRAS G12D of 55.3 nM.
For `C#Cc1c(F)ccc2cccc(-c3nc4c5c(nc(OCC6(CN7CCC8(CC7)CC8(F)F)CC6)nc5c3F)N3C[C@H]5CC[C@H](N5)[C@@H]3[C@@H](C)C4)c12` [Example 136, (5S,5aS,6S,9R)-12-((1-((1,1-difluoro-6-azaspiro[2.5]octan-6-yl)methyl)cyclopropyl)methoxy)-2-(8-ethynyl-7-fluoronaphthalen-1-yl)-1-fluoro-5-methyl-4,5,5a,6,7,8,9,10-octahydro-3,10a,11,13,14-pentaaza-6,9-methanonaphtho[1,8-ab]heptalene], in that order: 100 nM and 17.1 nM.
For `C#Cc1c(F)ccc2cccc(-c3nc4c5c(nc(OCC67CCCN6C[C@H](OC(F)(F)F)C7)nc5c3F)N3C[C@H]5CC[C@H](N5)[C@H]3CC4)c12` (stereo partly drawn) [Example 137, (5aR,6S,9R)-2-(8-ethynyl-7-fluoronaphthalen-1-yl)-1-fluoro-12-((cis-2-(trifluoromethoxy)tetrahydro-1H-pyrrolizin-7a(5H)-yl)methoxy)-4,5,5a,6,7,8,9,1O-octahydro-3,10a,11,13,14-pentaaza-6,9-methanonaphtho[1,8-ab]heptalene] the same measures were 100 nM and 24.5 nM.
Compound `C#Cc1c(F)ccc2cc(O)cc(-c3nc4c5c(nc(OCC67CCCN6C[C@H](OC(F)(F)F)C7)nc5c3F)N3C[C@H]5CC[C@H](N5)[C@H]3CC4)c12` (stereo partly drawn) [Example 138, 5-ethynyl-6-fluoro-4-((5aR,6S,9R)-1-fluoro-12-((cis-2-(trifluoromethoxy)tetrahydro-1H-pyrrolizin-7a(5H)-yl)methoxy)-4,5,5a,6,7,8,9,10-octahydro-3,10a,11,13,14-pentaaza-6,9-methanonaphtho[1,8-ab]heptalen-2-yl)naphthalen-2-ol] registered a half-maximal effective concentration (EC50) with GP2D (KRAS G12D) cells of 17.2 nM. This compound yielded an IC50 at GDP-loaded KRAS G12D of 0.3 nM.
Take `C#Cc1c(F)ccc2cc(O)cc(-c3nc4c5c(nc(OC[C@]67CCCN6C[C@H](OC(C(F)(F)F)(C(F)(F)F)C(F)(F)F)C7)nc5c3F)N3C[C@H]5CC[C@H](N5)[C@H]3CC4)c12` [Example 144, 5-ethynyl-6-fluoro-4-((5aR,6S,9R)-1-fluoro-12-((cis-2-((1,1,1,3,3,3-hexafluoro-2-(trifluoromethyl)propan-2-yl)oxy)tetrahydro-1H-pyrrolizin-7a(5H)-yl)methoxy)-4,5,5a,6,7,8,9,10-octahydro-3,10a,11,13,14-pentaaza-6,9-methanonaphtho[1,8-ab]heptalen-2-yl)naphthalen-2-ol]: in the experiment on GP2D (KRAS G12D) cells, a half-maximal response (EC50) required 100 nM. At GDP-loaded KRAS G12D, this compound displayed a half-maximal inhibitory concentration (IC50) of 83.1 nM.
For `C#Cc1c(F)ccc2cccc(-c3nc4c5c(nc(OC[C@]67CCCN6C[C@H](OC(C(F)(F)F)(C(F)(F)F)C(F)(F)F)C7)nc5c3F)N3C[C@H]5CC[C@H](N5)[C@H]3CC4)c12` [Example 145, (5aR,6S,9R)-2-(8-ethynyl-7-fluoronaphthalen-1-yl)-1-fluoro-12-((cis-2-((1,1,1,3,3,3-hexafluoro-2-(trifluoromethyl)propan-2-yl)oxy)tetrahydro-1H-pyrrolizin-7a(5H)-yl)methoxy)-4,5,5a,6,7,8,9,10-octahydro-3,10a,11,13,14-pentaaza-6,9-methanonaphtho[1,8-ab]heptalene], in that order: 100 nM and 100 nM.
For `C#Cc1c(F)ccc2cccc(-c3nc4c5c(nc(OCC6(CN7CCC(C(F)(F)F)CC7)CC6)nc5c3F)N3C[C@H]5CC[C@H](N5)[C@@H]3[C@@H](C)C4)c12` [Example 146, (5S,5aS,6S,9R)-2-(8-ethynyl-7-fluoronaphthalen-1-yl)-1-fluoro-5-methyl-12-((1-((4-(trifluoromethyl)piperidin-1-yl)methyl)cyclopropyl)methoxy)-4,5,5a,6,7,8,9,10-octahydro-3,10a,11,13,14-pentaaza-6,9-methanonaphtho[1,8-ab]heptalene], in that order: 100 nM and 15.6 nM.
Consider `C#Cc1c(F)ccc2cc(O)cc(-c3nc4c5c(nc(OC[C@@]67CCCN6[C@H](COc6cc(C(F)(F)F)ncn6)CC7)nc5c3F)N3C[C@H]5CC[C@H](N5)[C@H]3CC4)c12` [Example 149, 5-ethynyl-6-fluoro-4-((5aR,6S,9R)-1-fluoro-12-(((3S,7aS)-3-(((6-(trifluoromethyl)pyrimidin-4-yl)oxy)methyl)tetrahydro-1H-pyrrolizin-7a(5H)-yl)methoxy)-4,5,5a,6,7,8,9,10-octahydro-3,10a,11,13,14-pentaaza-6,9-methanonaphtho[1,8-ab]heptalen-2-yl)naphthalen-2-ol], for which the EC50 in the experiment with GP2D (KRAS G12D) cells was found to be 0.3 nM. In addition, at GDP-loaded KRAS G12D, the half-maximal inhibitory concentration (IC50) was below 0.1 nM.
